Values after ≈ are worked out from the molar mass of the structure shown. Active and inactive are the calls of the source. No cut-off for these calls is given here.
Experiments:
[1] = system: Enterococcus faecalis; test: Antibacterial activity against Enterococcus faecalis by broth microdilution assay; format: functional
[2] = system: Pseudomonas aeruginosa; test: Antibacterial activity against Pseudomonas aeruginosa by broth microdilution assay; format: functional
[3] = system: Staphylococcus aureus; test: Antibacterial activity against methicillin-resistant Staphylococcus aureus by broth microdilution assay; format: functional
[4] = system: Escherichia coli; test: Antibacterial activity against Escherichia coli ATCC 25922 by broth microdilution assay; format: functional
[5] = system: Pseudomonas aeruginosa; test: Antibacterial activity against Pseudomonas aeruginosa ATCC 27853 by broth microdilution assay; format: functional
[6] = system: Staphylococcus aureus; test: Antibacterial activity against Staphylococcus aureus ATCC 25923 by broth microdilution assay; format: functional
[7] = system: Staphylococcus aureus; test: Antibacterial activity against Staphylococcus aureus ATCC 29213 by broth microdilution assay; format: functional
[8] = system: Acinetobacter baumannii; test: Antibacterial activity against Acinetobacter baumannii by broth microdilution assay; format: functional
[9] = system: Klebsiella pneumoniae; test: Antibacterial activity against Klebsiella pneumonia by broth microdilution assay; format: functional
[10] = system: Staphylococcus aureus; test: Antibacterial activity against Staphylococcus aureus by broth microdilution assay; format: functional
[11] = system: Escherichia coli; test: Antibacterial activity against Escherichia coli by broth microdilution assay; format: functional
[12] = system: Staphylococcus aureus; test: Antibacterial activity against methicillin-resistant Staphylococcus aureus assessed as reduction in bacterial growth measured after 16 passages; format: functional, organism-based
[13] = system: Cell membrane; test: Disruption of inner cell membrane in methicillin-resistant Staphylococcus aureus at 4 times of MIC measured within 14 mins by PI uptake assay; format: subcellular
[14] = system: Calf thymus DNA; test: Binding affinity to calf thymus DNA assessed as reduction in fluorescence intensity of DNA-AO complex by AO dye based fluorescence analysis; settings: Bos taurus
[15] = system: Staphylococcus aureus; test: Antibacterial activity against methicillin-resistant Staphylococcus aureus assessed as metabolic inactivation by Alamar blue assay; format: functional, organism-based
[16] = system: Calf thymus DNA; test: Binding affinity to calf thymus DNA assessed as red shift in absorption spectra upto 26.7 uM by UV-vis absorption spectroscopy; format: tissue-based; settings: Bos taurus, dose microM <=26.7
[17] = system: Calf thymus DNA; test: Binding affinity to calf thymus DNA assessed as enhancement in maximum absorption of DNA upto 26.7 uM by UV-vis absorption spectroscopy; format: tissue-based; settings: Bos taurus, dose microM <=26.7
[18] = system: Staphylococcus aureus; test: Potency index, ratio of MIC of norfloxacin to MIC of compound for antibacterial activity against methicillin-resistant Staphylococcus aureus by broth microdilution assay; format: functional

Compound	MIC [1] [µg/mL]	MIC [2] [µg/mL]	MIC [3] [µg/mL]	MIC [4] [µg/mL]	MIC [5] [µg/mL]	MIC [6] [µg/mL]	MIC [7] [µg/mL]	MIC [8] [µg/mL]	MIC [9] [µg/mL]	MIC [10] [µg/mL]	MIC [11] [µg/mL]	Activity [12]	Activity [13]	Activity [14]	Activity [15]	Activity [16]	Activity [17]	Ratio [18]
C#CCSc1nnc(CS(=O)(=O)c2ccc(NC(C)=O)cc2)o1	128 (≈ 364 µM)	64 (≈ 182 µM)	8 (≈ 22.8 µM)	128 (≈ 364 µM)	256 (≈ 728 µM)	64 (≈ 182 µM)	32 (≈ 91.1 µM)	128 (≈ 364 µM)	256 (≈ 728 µM)	64 (≈ 182 µM)	128 (≈ 364 µM)							
CCCCCCCCCCCCSc1nnc(CS(=O)(=O)c2ccc(NC(C)=O)cc2)o1	128 (≈ 266 µM)	256 (≈ 531 µM)	128 (≈ 266 µM)	256 (≈ 531 µM)	256 (≈ 531 µM)	256 (≈ 531 µM)	256 (≈ 531 µM)	256 (≈ 531 µM)	64 (≈ 133 µM)	256 (≈ 531 µM)	256 (≈ 531 µM)							
CC(=O)Nc1ccc(S(=O)(=O)Cc2nnc(SCC(=O)O)o2)cc1	64 (≈ 172 µM)	128 (≈ 345 µM)	32 (≈ 86.2 µM)	128 (≈ 345 µM)	128 (≈ 345 µM)	64 (≈ 172 µM)	64 (≈ 172 µM)	32 (≈ 86.2 µM)	64 (≈ 172 µM)	128 (≈ 345 µM)	32 (≈ 86.2 µM)							
CC(=O)Nc1ccc(S(=O)(=O)Cc2nnc(SCc3ccc(Cl)cc3Cl)o2)cc1	128 (≈ 271 µM)	64 (≈ 135 µM)	2 (≈ 4.23 µM)	64 (≈ 135 µM)	256 (≈ 542 µM)	256 (≈ 542 µM)	32 (≈ 67.7 µM)	32 (≈ 67.7 µM)	16 (≈ 33.9 µM)	64 (≈ 135 µM)	16 (≈ 33.9 µM)							
CC(=O)Nc1ccc(S(=O)(=O)Cc2nnc(SCC3CC3)o2)cc1	64 (≈ 174 µM)	64 (≈ 174 µM)	8 (≈ 21.8 µM)	128 (≈ 348 µM)	64 (≈ 174 µM)	64 (≈ 174 µM)	64 (≈ 174 µM)	64 (≈ 174 µM)	128 (≈ 348 µM)	128 (≈ 348 µM)	8 (≈ 21.8 µM)							
CC(=O)Nc1ccc(S(=O)(=O)Cc2nnc(S)o2)cc1	128 (≈ 408 µM)	256 (≈ 817 µM)	256 (≈ 817 µM)	256 (≈ 817 µM)	256 (≈ 817 µM)	256 (≈ 817 µM)	256 (≈ 817 µM)	256 (≈ 817 µM)	256 (≈ 817 µM)	256 (≈ 817 µM)	256 (≈ 817 µM)							
CCn1cc(C(=O)O)c(=O)c2cc(F)c(N3CCNCC3)cc21 [NORFLOXACIN]	8 (≈ 25.1 µM)	4 (≈ 12.5 µM)	16 (≈ 50.1 µM)	8 (≈ 25.1 µM)	8 (≈ 25.1 µM)	8 (≈ 25.1 µM)	8 (≈ 25.1 µM)	8 (≈ 25.1 µM)	16 (≈ 50.1 µM)	4 (≈ 12.5 µM)	8 (≈ 25.1 µM)	inactive						
CC(=O)Nc1ccc(S(=O)(=O)Cc2nnc(SCC#N)o2)cc1	256 (≈ 726 µM)	256 (≈ 726 µM)	256 (≈ 726 µM)	256 (≈ 726 µM)	256 (≈ 726 µM)	256 (≈ 726 µM)	256 (≈ 726 µM)	128 (≈ 363 µM)	256 (≈ 726 µM)	128 (≈ 363 µM)	256 (≈ 726 µM)							
CC(=O)Nc1ccc(S(=O)(=O)Cc2nnc(SCCO)o2)cc1	32 (≈ 89.5 µM)	32 (≈ 89.5 µM)	32 (≈ 89.5 µM)	64 (≈ 179 µM)	128 (≈ 358 µM)	32 (≈ 89.5 µM)	32 (≈ 89.5 µM)	64 (≈ 179 µM)	16 (≈ 44.8 µM)	64 (≈ 179 µM)	32 (≈ 89.5 µM)							
CC(=O)CSc1nnc(CS(=O)(=O)c2ccc(NC(C)=O)cc2)o1	64 (≈ 173 µM)	64 (≈ 173 µM)	2 (≈ 5.41 µM)	64 (≈ 173 µM)	128 (≈ 346 µM)	128 (≈ 346 µM)	32 (≈ 86.6 µM)	64 (≈ 173 µM)	16 (≈ 43.3 µM)	64 (≈ 173 µM)	16 (≈ 43.3 µM)							
CCCCCCSc1nnc(CS(=O)(=O)c2ccc(NC(C)=O)cc2)o1	128 (≈ 322 µM)	256 (≈ 644 µM)	1 (≈ 2.52 µM)	128 (≈ 322 µM)	256 (≈ 644 µM)	256 (≈ 644 µM)	256 (≈ 644 µM)	32 (≈ 80.5 µM)	8 (≈ 20.1 µM)	256 (≈ 644 µM)	256 (≈ 644 µM)	Active	Active	Active	Active	Active	Active	16
CC(=O)Nc1ccc(S(=O)(=O)Cc2nnc(SCCF)o2)cc1	64 (≈ 178 µM)	64 (≈ 178 µM)	2 (≈ 5.56 µM)	64 (≈ 178 µM)	128 (≈ 356 µM)	128 (≈ 356 µM)	32 (≈ 89 µM)	64 (≈ 178 µM)	32 (≈ 89 µM)	64 (≈ 178 µM)	32 (≈ 89 µM)							8
CC(=O)Nc1ccc(S(=O)(=O)Cc2nnc(SCc3ccc(F)cc3F)o2)cc1	128 (≈ 291 µM)	64 (≈ 146 µM)	16 (≈ 36.4 µM)	128 (≈ 291 µM)	64 (≈ 146 µM)	64 (≈ 146 µM)	32 (≈ 72.8 µM)	64 (≈ 146 µM)	128 (≈ 291 µM)	64 (≈ 146 µM)	8 (≈ 18.2 µM)							
C=CCSc1nnc(CS(=O)(=O)c2ccc(NC(C)=O)cc2)o1	64 (≈ 181 µM)	256 (≈ 724 µM)	256 (≈ 724 µM)	256 (≈ 724 µM)	256 (≈ 724 µM)	256 (≈ 724 µM)	256 (≈ 724 µM)	256 (≈ 724 µM)	256 (≈ 724 µM)	256 (≈ 724 µM)	256 (≈ 724 µM)							
CCOC(=O)CSc1nnc(CS(=O)(=O)c2ccc(NC(C)=O)cc2)o1	128 (≈ 320 µM)	64 (≈ 160 µM)	16 (≈ 40.1 µM)	128 (≈ 320 µM)	128 (≈ 320 µM)	64 (≈ 160 µM)	64 (≈ 160 µM)	32 (≈ 80.1 µM)	64 (≈ 160 µM)	128 (≈ 320 µM)	32 (≈ 80.1 µM)							
CCCCSc1nnc(CS(=O)(=O)c2ccc(NC(C)=O)cc2)o1	256 (≈ 693 µM)	256 (≈ 693 µM)	256 (≈ 693 µM)	256 (≈ 693 µM)	256 (≈ 693 µM)	256 (≈ 693 µM)	256 (≈ 693 µM)	256 (≈ 693 µM)	256 (≈ 693 µM)	128 (≈ 346 µM)	128 (≈ 346 µM)							
CCN(CC)CCSc1nnc(CS(=O)(=O)c2ccc(NC(C)=O)cc2)o1	64 (≈ 155 µM)	128 (≈ 310 µM)	32 (≈ 77.6 µM)	128 (≈ 310 µM)	64 (≈ 155 µM)	64 (≈ 155 µM)	64 (≈ 155 µM)	32 (≈ 77.6 µM)	128 (≈ 310 µM)	128 (≈ 310 µM)	64 (≈ 155 µM)							
